According to ChEMBL document CHEMBL1156189, “Structure-function relationships of estrogenic triphenylethylenes related to endoxifen and 4-hydroxytamoxifen” (J Med Chem, 2010):
pEC50: −log10 of the molar value. Calls of active or inactive are those of the source. The rule behind the calls is not given here.

Tests used:
[1] = (§1) Estrogenic activity in human ERalpha expressing MCF7:WS8 cells assessed as stimulation of cell proliferation after 7 days; format: functional; conditions: for EC50: mcf7:ws8
[2] = Antiestrogenic activity in human ERalpha expressing MCF7:WS8 cells assessed as inhibition of estradiol-induced proliferation at 1 uM after 7 days; format: functional, cell-based
MCF7:WS8 = assay: as §1; format: functional

| Compound | EC50 [1] | inhibition [2] | Activity (MCF7:WS8) | pEC50 ([1]; Homo sapiens, MCF7:WS8, 168 h, read-out: EC50) |
| --- | --- | --- | --- | --- |
| CC/C(=C(\c1ccccc1)c1ccc(O)cc1)c1ccc(O)cc1 | 1 10^-1nmol | – | – | – |
| CC/C(=C(\c1ccc(O)cc1)c1ccc(OCCNC)cc1)c1ccccc1 | – | Active | inactive | – |
| CCC(=C(c1ccc(O)cc1)c1ccc(O)cc1)c1ccc(O)cc1 | 1.5 10^-1nmol | inactive | – | – |
| CCC(=C(c1ccc(O)cc1)c1ccc(O)cc1)c1ccccc1 | 5 10^-2nmol | – | – | – |
| CC/C(=C(/c1ccc(O)cc1)c1ccc(OCCN(C)C)cc1)c1ccccc1 | – | – | inactive | – |
| CCC(=C(c1ccc(O)cc1)c1ccc(OCCN(C)C)cc1)c1ccccc1 | – | Active | inactive | – |
| CCOc1ccc(/C(=C(/CC)c2ccc(O)cc2)c2ccc(O)cc2)cc1 | – | inactive | – | 8.40 |
| CC/C(=C(/c1ccccc1)c1ccc(O)cc1)c1ccc(O)cc1 | 1 10^-1nmol | – | – | – |
| C[C@]12CC[C@@H]3c4ccc(O)cc4CC[C@H]3[C@@H]1CC[C@@H]2O [ESTRADIOL] | 0.001 nM | – | – | – |
